This note sets out measurements from patent US20190337889A1, “COMPOSITIONS AND METHODS OF REGULATING CANCER RELATED DISORDERS AND DISEASES” (ONCO THERAPIES LLC, priority 2016, published 2019).

Assay [1] relates to HepG2 cells. Put plainly: XTT cell death assay, HepG2 hepatocarcinoma cells. The class given is cell-based, human. Conditions: dilutions 0.01 nM to 200 μM, usually 24 or 48 hours; for minimal effective concentration: Homo sapiens, HepG2, *Greater than 50% inhibition, read-out: HepG2* (liver cancer): concentration with greater than 50% inhibition. How it is done: (§1) Maintenance and Treatment of Cell Lines. Human HepG2 hepatocarcinoma cells and human U87MG glioma cells (ATCC, Manassas, Va.) were maintained in EMEM medium supplemented with 10% FBS (Hyclone, Logan, Utah). The human 1321N1 astrocytoma cells (European Collection of Cell Cultures, Sigma-Aldrich) were cultured in Dulbecco's modified Eagle's medium supplemented with 10% FBS and 2 mM L-glutamine. Human prostate carcinoma cell line PC3 was cultured in F-12K medium (Life Technologies) supplemented 10% FBS. Human lung carcinoma cell line A549 was cultured in DMEM+2 mM glutamine+10% FBS. ER positive, estrogen independent for growth MCF7/LCC9 cell line was cultured in IMEM (Biofluids) supplemented with 5% charcoal stripped calf serum. Medulloblastoma cell line DAOY was cultured in Eagle's MEM supplemented with 10% FBS.
(§2) Cell death assay. The extent of cell death and toxicity of the compounds was tested by XTT assay. The cells were plated in their respective media in 96-well plates. The compounds and were added in dilutions ranging from 0.01 nM to 200 μM and for control DMSO to 1% was used. […] For XTT assay first the medium in the wells was replaced with 200 μs of fresh phenol-red free medium. Then 50 μls of XTT solution with PMS was added to the wells. The XTT solution was made adding 0.02% phenazine methosulfate (Sigma-Aldrich #P9625) to 1 mg/ml XTT sodium salt made up in phenol-red free RPMI (Sigma-Aldrich #X4636).

In the next assay the test system is 1321N1 cells. The assay is described as follows: XTT cell death assay, 1321N1 astrocytoma cells. The class given is cell-based. Conditions: Homo sapiens, *Greater than 50% inhibition, dilutions 0.01 nM to 200 μM, usually 24 or 48 hours, read-out: 1321N* (brain cancer): concentration with greater than 50% inhibition. On the procedure: as §1, §2
The next assay has as its system PC3 cells. The assay is described as follows: XTT cell death assay, PC3 prostate carcinoma cells. The assay is classed as cell-based. Conditions: Homo sapiens, PC-3, # = 200 uM not tested, read-out: PC3: concentration with effect on cancer cells. How it is done:
(§3) Maintenance and Treatment of Cell Lines. Human HepG2 hepatocarcinoma cells and human U87MG glioma cells (ATCC, Manassas, Va.) were maintained in EMEM medium supplemented with 10% FBS (Hyclone, Logan, Utah). The human 1321N1 astrocytoma cells (European Collection of Cell Cultures, Sigma-Aldrich) were cultured in Dulbecco's modified Eagle's medium supplemented with 10% FBS and 2 mM L-glutamine. Human prostate carcinoma cell line PC3 was cultured in F-12K medium (Life Technologies) supplemented 10% FBS. Human lung carcinoma cell line A549 was cultured in DMEM+2 mM glutamine+10% FBS. ER positive, estrogen independent for growth MCF7/LCC9 cell line was cultured in IMEM (Biofluids) supplemented with 5% charcoal stripped calf serum. Medulloblastoma cell line DAOY was cultured in Eagle's MEM supplemented with 10% FBS. All cell lines except […] were cultured at 37° C. in 5% CO2, and the medium was replaced every 2-3 days. MDA-MB-231 was grown in Leibovitz's L-15 medium with 10% FBS without CO2 supplementation.
as §2, with “#X4636). The plate was incubated for 4 hours at 37° C. and then the absorbance was read at a wavelength of 490 nm.” for “#X4636).”

Another assay has as its system A549. The assay is described as follows: XTT cell death assay, A549 lung carcinoma cells. The class given is cell-based. Conditions: Homo sapiens, # = 200 uM not tested, read-out: A549: concentration with effect on cancer cells. On the procedure: as §3
as §2, with “#X4636). The plate was incubated for 4 hours at 37° C. and then the absorbance was read at a wavelength of 490 nm.” for “#X4636).”

Another assay concerns DAOY. Put plainly: XTT cell death assay, DAOY medulloblastoma cells. Conditions: Homo sapiens, # = 200 uM not tested, read-out: DAOY: concentration with effect on cancer cells. The assay is classed as cell-based. On the procedure:
as §3
as §2, with “#X4636). The plate was incubated for 4 hours at 37° C. and then the absorbance was read at a wavelength of 490 nm.” for “#X4636).”

The subject of assay [2] is HepG2 cells. Put plainly: Caspase assay (Caspase-Glo 3/7) on HepG2 cells. The assay is classed as cell-based, human. Conditions: n=4; for caspase activity (fluorescence ratio to untreated cells): 48 hours after addition, 100 uM. On the procedure: Caspase Assay. Caspase assay was conducted by using the Promega Caspase-Glo 3/7 kit. 100 ul of caspase-Glo 3/7 reagent was added to each well of a white walled 96-well plate containing 100 ul of blank, negative control cells or treated cells in culture medium. The contents of the wells were mixed gently and incubated at room temperature for 30 minutes to 3 hours. The luminescence of each sample was read in a luminometer.

The subject of a further assay is MDA-MB-231. Put plainly: XTT cell death assay, MDA-MB-231 cells. Conditions: Homo sapiens, # = 200 uM not tested, read-out: MDA-MB-231: concentration with effect on cancer cells. The assay is classed as cell-based. On the procedure:
as §3
as §2, with “#X4636). The plate was incubated for 4 hours at 37° C. and then the absorbance was read at a wavelength of 490 nm.” for “#X4636).”

In another assay the test system is MCF7/LCC9 cell line. The assay is described as follows: XTT cell death assay, MCF7/LCC9 cells. The class given is cell-based. Conditions: Homo sapiens, # = 200 uM not tested, read-out: LCC-9: concentration with effect on cancer cells. How it is done: as §3
as §2, with “#X4636). The plate was incubated for 4 hours at 37° C. and then the absorbance was read at a wavelength of 490 nm.” for “#X4636).”

The test system of the next assay is A549 xenograft. The assay is described as follows: Zebrafish xenograft assay with implanted A549 cells. Conditions: zebrafish embryos, 100 uM, 4 days after implantation, n=10 to 15. The assay is classed as in vivo. How it is done: Zebrafish xenograft assay. Zebrafish embryos with implanted A549 cells were imaged within 6 hours of cell injection (day 0) and treated with compounds. At 4 days post injection (day 4) the embryos were imaged again. The area of fluorescence due to the labeled cells was measured using Image J at day 0 (area 0) and day 4 (area 4). The change in area was calculated by subtracting area 0 from area 4 (=d area). D area was then normalized for the size of the initial tumor by dividing d area by area 0 (=d area/area 0).

`O=C(O)c1cc(O)c(O)c(O)c1` [NT003]: the minimal effective concentration in the assay on HepG2 cells [1] and with 1321N1 cells was 200 µM each time.

For the molecule `CC(N)c1cccc2ccccc12` (stereo not shown) [NT009], the minimal effective concentration with HepG2 cells [1] and with 1321N1 cells was 100 µM throughout.

As for `CC(N)c1ccc2ccccc2c1` (stereo not shown) [NT010], the minimal effective concentration in the assay on HepG2 cells [1] and in the assay with 1321N1 cells was 200 µM each time.

Turning to `COc1ccc2cc(C(C)N)ccc2c1` (stereo not shown) [NT011], the minimal effective concentration in the assay on HepG2 cells [1] and with 1321N1 cells was 200 µM in each case.

For `CC(Cc1cccc2ccccc12)Nc1ccc(O)cc1` (stereo not shown) [NT017, 4-((1-(naphthalen-1-yl)propan-2-yl)amino)phenol], the minimal effective concentration in the assay on PC3 cells, in the assay on A549, with DAOY and in the assay with 1321N1 cells was 100 µM each time. The “HepG2* (liver cancer): concentration with greater than 50% inhibition” value in the assay with HepG2 cells [1] is “No effect”.

As to `CC(Cc1ccc2ccccc2c1)Nc1ccc(O)cc1` (stereo not shown) [NT018, 4-((1-(naphthalen-2-yl)propan-2-yl)amino)phenol], the minimal effective concentration with PC3 cells amounted to 100 µM; in the assay with A549, 100 µM; in the assay on HepG2 cells [1] it was 200 µM; with DAOY, 100 µM; in the assay on 1321N1 cells, 100 µM.

For the molecule `CC(Cc1cccc2ccccc12)NCC(O)c1ccc(O)cc1` (stereo not shown) [NT019], the minimal effective concentration in the assay with PC3 cells, in the assay with A549, with HepG2 cells [1] and in the assay on DAOY was 100 µM in each case. Moreover, in the assay with HepG2 cells [2], the “caspase activity (fluorescence ratio to untreated cells)” value is given as “increase in caspase activity”.

Regarding `CC(Cc1ccc2ccccc2c1)NCC(O)c1ccccc1` (stereo not shown) [NT020, 2-((1-(naphthalen-2-yl)propan-2-yl)amino)-1-phenylethan-1-ol], the minimal effective concentration with PC3 cells, in the assay on A549, in the assay on MDA-MB-231, with MCF7/LCC9 cell line, in the assay with HepG2 cells [1] and in the assay with DAOY was 100 µM in each case.

In the case of `CC(Cc1ccc2ccccc2c1)NCCc1ccc(O)cc1` (stereo not shown) [NT021, 4-(2-((1-(naphthalen-2-yl)propan-2-yl)amino)ethyl)phenol], the minimal effective concentration in the assay on PC3 cells stood at 200 µM; in the assay with A549, 100 µM; with MDA-MB-231 it was 100 µM; with MCF7/LCC9 cell line, 100 µM; in the assay with HepG2 cells [1], 200 µM; in the assay with DAOY, 100 µM.

`CC(Cc1cccc2ccccc12)NCC(O)c1cccc(O)c1` (stereo not shown) [NT022, 3-(1-hydroxy-2-((1-(naphthalen-1-yl)propan-2-yl)amino)ethyl)phenol]: the minimal effective concentration in the assay on PC3 cells, in the assay on A549, with MDA-MB-231, in the assay on MCF7/LCC9 cell line, in the assay on HepG2 cells [1] and in the assay with DAOY was 100 µM in each case. The “caspase activity (fluorescence ratio to untreated cells)” value in the assay with HepG2 cells [2] was “increase in caspase activity”.

`CC(Cc1ccc2ccccc2c1)NCC(O)c1cccc(O)c1` (stereo not shown) [NT023, 3-(1-hydroxy-2-((1-(naphthalen-2-yl)propan-2-yl)amino)ethyl)phenol]: the minimal effective concentration in the assay with PC3 cells, in the assay on A549, in the assay on MDA-MB-231, in the assay on MCF7/LCC9 cell line, with HepG2 cells [1] and in the assay with DAOY was 100 µM each time.

Take `CC(Cc1ccc2ccccc2c1)NCC(O)c1ccccc1O` (stereo not shown) [NT030, 2-(1-hydroxy-2-((1-(naphthalen-2-yl)propan-2-yl)amino)ethyl)phenol]: the minimal effective concentration in the assay with PC3 cells, in the assay with A549, in the assay with MDA-MB-231, with MCF7/LCC9 cell line, in the assay with HepG2 cells [1] and in the assay on DAOY was 100 µM each time.

Consider `Cc1ccc(CC(C)NCCc2ccc(O)cc2)c2ccccc12` (stereo not shown) [NT034], for which the values for the minimal effective concentration with MDA-MB-231, in the assay on MCF7/LCC9 cell line and in the assay on HepG2 cells [1] were 100 µM, 100 µM and 200 µM, respectively.

On to `Cc1ccc(CC(C)NCC(O)c2cccc(O)c2)c2ccccc12` (stereo not shown) [NT037, 3-(1-hydroxy-2-((1-(4-methylnaphthalen-1-yl)propan-2-yl)amino)ethyl)phenol], for which the minimal effective concentration in the assay on A549, with MDA-MB-231, in the assay on MCF7/LCC9 cell line and in the assay on DAOY was 100 µM throughout.

Take `Cc1ccc(CC(C)NCC(O)c2ccccc2)c2ccccc12` (stereo not shown) [NT038, 2-((1-(4-methylnaphthalen-1-yl)propan-2-yl)amino)-1-phenylethan-1-ol]: the minimal effective concentration in the assay with A549, in the assay with MDA-MB-231, with MCF7/LCC9 cell line and with DAOY was 100 µM throughout.

Regarding `Cc1ccc(CC(C)NCC(O)c2ccc(O)cc2)c2ccccc12` (stereo not shown) [NT039, 4-(1-hydroxy-2-((1-(4-methylnaphthalen-1-yl)propan-2-yl)amino)ethyl)phenol], the “area of A549 xenograft implant” value with A549 xenograft is “efficacy of reducing the area of xenograft significantly”. In addition, the minimal effective concentration with A549, in the assay on MCF7/LCC9 cell line and in the assay on DAOY was 100 µM each time.

Consider `C[C@H](CCC(=O)O)C[C@H](C)C[C@H](C)C(=O)/C=C(\O)[C@H](C)C[C@H](C)C/C=C/[C@@H](C)[C@@H](O)[C@@H](C)[C@@H](O)C[C@@H]1CC[C@@](C)([C@H]2CC[C@@](C)([C@@H](C)O)O2)O1` [ionomycin, reference compound], for which the “caspase activation (fluorescence ratio to untreated cells)” value in the assay with HepG2 cells [2] (48 hours, control compound at 10 uM) is on record as “did not show an increase in caspase activation”.
